In patent publication US20240254118A1, “PRMT5 INHIBITORS AND USES THEREOF” (Gilead Sciences, Inc., priority 2022, published 2024):
Each block holds one compound with its values, some of them ahead of it.

Columns and labels:
[1] = system: SDMA signal (PRMT5 inhibition) in HCT116 MTAP-deleted cells; test: Symmetric di-methyl arginine image-based high content screen assay (SDMA assay), HCT116 MTAP-deleted; format: cell-based; settings: SDMA assay; for EC50: Homo sapiens, HCT-116, 72 h, 3 days of treatment, cell line not given, taken as HCT116 MTAP-deleted, read-out: EC50 (SDMA assay)
Summary of the method: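 Read-out: per-cell mean SDMA immunofluorescence (Alexa Fluor 488 secondary), cells segmented by DAPI on a high-content imager. Compound exposure in HCT116 MTAP-deleted cells lasted until fixation on Day 3; overnight 4° C primary anti-SDMA antibody staining.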

[2] = system: HCT116 MTAP-deleted cells; test: Cell viability assay (CellTiter-Glo, 7 days), HCT116 MTAP-deleted; settings: Homo sapiens, HCT-116, 168 h
Experimental: Control compounds were analyzed in parallel each time for quality control.
In Brief, on Day −1, a serial dilution of stock compounds in DMSO was performed using BioMek liquid handlers and dispensed using Echo acoustic dispenser into 384 well plates. Both tool compounds and sample compounds were spotted in the same plate for a dose response of PRMT5 inhibitors. Compound plates were stored as frozen until the cells were ready for seeding.
On Day 0, 100 HCT WT or HCT116 MTAP-deleted cells were seeded in compound-containing 384 well plates (50 μl per well) in RPMI 1640 media supplemented with 10% heat inactivated fetal bovine serum, Glutamax and penicillin streptomycin using EL460 liquid dispenser 5 μl cassette (BioTek, part no. 7170011). After equilibrating the plate in room temperature, the cells were incubated for 7 days inside the sealed incubator set at 37 °C with 90% humidity and 5% CO2.
On Day 7, the viability of cells was measured using a CTG assay kit (CellTitre-Glo; Promega cat no. G7573). Shortly, 40 μl per well of luminescent cell viability assay reagent were dispensed using EL460 liquid dispenser 5 μl cassette. CTG luminescence signal was measured using an EnVision plate reader (PerkinElmer) in accordance with manufacturer's instruction. The CC50 values for each compound after 7 days of treatment were calculated using 4 parameter non-linear logistical curve fit.

[3] = taken as HCT116 WT versus MTAP-deleted
[4] = taken as HCT116 WT vs MTAP-deleted

SMILES: CC(=O)N(C)N(Cc1ccc(C#CC(C)(C)O)cc1F)C(=O)c1ccc2nc(N)c3cnn(C)c3c2c1 [Example 389, N′-acetyl-4-amino-N-[[2-fluoro-4-(3-hydroxy-3-methyl-but-1-ynyl)phenyl]methyl]-N′,1-dimethyl-pyrazolo[4,3-c]quinoline-8-carbohydrazide]
EC50 [1]: 1 to 5 nM
EC50 selectivity (SDMA assay) [1, 3]: 31
CC50 [2]: < 100 nM

SMILES: CC(=O)N(C)N(Cc1ccc(C#CC23CC(C2)C3)cc1F)C(=O)c1ccc2nc(N)c3cnn(C)c3c2c1 [Example 390, N′-acetyl-4-amino-N-[[4-[2-(1-bicyclo[1.1.1]pentanyl)ethynyl]-2-fluoro-phenyl]methyl]-N′,1-dimethyl-pyrazolo[4,3-c]quinoline-8-carbohydrazide]
EC50 [1]: 1 to 5 nM
EC50 selectivity (SDMA assay) [1, 3]: 27
CC50 [2]: < 100 nM

SMILES: CN(C(=O)C1CC1)N(Cc1ccc(C#CC2CCCO2)cc1F)C(=O)c1ccc2nc(N)c3cnn(C)c3c2c1 (stereo not drawn) [Example 391, 4-amino-N′-(cyclopropanecarbonyl)-N-(2-fluoro-4-((tetrahydrofuran-2-yl)ethynyl)benzyl)-N′,1-dimethyl-1H-pyrazolo[4,3-c]quinoline-8-carbohydrazide]
EC50 [1]: 1 to 5 nM
EC50 selectivity (SDMA assay) [1, 3]: 64
CC50 [2]: < 100 nM

SMILES: Cn1ncc2c(N)nc3ccc(C(=O)N(Cc4ccc(C(F)(F)F)nc4)N4CCCC4=O)cc3c21 [Example 392, 4-amino-1-methyl-N-(2-oxopyrrolidin-1-yl)-N-[[6-(trifluoromethyl)-3-pyridyl]methyl]pyrazolo[4,3-c]quinoline-8-carboxamide]
EC50 [1]: 1 to 5 nM
EC50 selectivity (SDMA assay) [1, 3]: 285
CC50 [2]: < 100 nM

SMILES: CN(C(=O)C1CC1)N(Cc1ccc(C(F)(F)F)nc1)C(=O)c1ccc2nc(N)c3cnn(C)c3c2c1 [Example 393, 4-amino-N′-(cyclopropanecarbonyl)-N′,1-dimethyl-N-[[6-(trifluoromethyl)-3-pyridyl]methyl]pyrazolo[4,3-c]quinoline-8-carbohydrazide]
EC50 [1]: 1 to 5 nM
EC50 selectivity (SDMA assay) [1, 3]: 380
CC50 [2]: < 100 nM

SMILES: COCCN(C)N(Cc1ccc(C(F)(F)F)cc1F)C(=O)c1cc2c(cc1F)nc(N)c1cnn(C)c12 [Example 395, 4-amino-7-fluoro-N-(2-fluoro-4-(trifluoromethyl)benzyl)-N′-(2-methoxyethyl)-N′,1-dimethyl-1H-pyrazolo[4,3-c]quinoline-8-carbohydrazide]
EC50 [1]: 1 to 5 nM
EC50 selectivity (SDMA assay) [1, 3]: 33
CC50 [2]: < 100 nM

SMILES: COCCN(C)N(Cc1ccc(C(F)(F)F)cc1F)C(=O)c1ccc2nc(N)c3cnn(C)c3c2c1 [Example 396, 4-amino-N-[[2-fluoro-4-(trifluoromethyl)phenyl]methyl]-N′-(2-methoxyethyl)-N′,1-dimethyl-pyrazolo[4,3-c]quinoline-8-carbohydrazide]
EC50 [1]: 1 to 5 nM
EC50 selectivity (SDMA assay) [1, 4]: 135
CC50 [2]: < 100 nM

SMILES: Cn1ncc2c(N)nc3ccc(C(=O)N(Cc4ccc(C(F)(F)F)cc4F)N4CCOCC4)cc3c21 [Example 397, 4-amino-N-[[2-fluoro-4-(trifluoromethyl)phenyl]methyl]-1-methyl-N-morpholino-pyrazolo[4,3-c]quinoline-8-carboxamide]
EC50 [1]: 1 to 5 nM
EC50 selectivity (SDMA assay) [1, 4]: 78
CC50 [2]: < 100 nM

SMILES: Cn1ncc2c(N)nc3cc(F)c(C(=O)N(Cc4ccc(C(F)(F)F)cc4F)N4CCOCC4)cc3c21 [Example 398, 4-amino-7-fluoro-N-[[2-fluoro-4-(trifluoromethyl)phenyl]methyl]-1-methyl-N-morpholino-pyrazolo[4,3-c]quinoline-8-carboxamide]
EC50 [1]: 1 to 5 nM
EC50 selectivity (SDMA assay) [1, 4]: 31
CC50 [2]: < 100 nM

SMILES: CN(C(=O)CC1CC1)N(Cc1ccc(C(F)(F)F)cn1)C(=O)c1ccc2nc(N)c3cnn(C)c3c2c1 [Example 399, 4-amino-N′-(2-cyclopropylacetyl)-N′,1-dimethyl-N-[[5-(trifluoromethyl)-2-pyridyl]methyl]pyrazolo[4,3-c]quinoline-8-carbohydrazide]
EC50 [1]: 1 to 5 nM
EC50 selectivity (SDMA assay) [1, 4]: 358
CC50 [2]: < 100 nM

SMILES: CC(=O)N(C)N(Cc1cc2cc(Cl)ccn2n1)C(=O)c1ccc2nc(N)c3cnn(C)c3c2c1 [Example 400, N′-acetyl-4-amino-N-((5-chloropyrazolo[1,5-a]pyridin-2-yl)methyl)-N′,1-dimethyl-1H-pyrazolo[4,3-c]quinoline-8-carbohydrazide]
EC50 [1]: < 1 nM
EC50 selectivity (SDMA assay) [1, 4]: 278
CC50 [2]: < 100 nM

SMILES: CC(=O)N(C)N(Cc1cc2cc(C(F)(F)F)ccn2n1)C(=O)c1ccc2nc(N)c3cnn(C)c3c2c1 [Example 402, N′-acetyl-4-amino-N′,1-dimethyl-N-((5-(trifluoromethyl)pyrazolo[1,5-a]pyridin-2-yl)methyl)-1H-pyrazolo[4,3-c]quinoline-8-carbohydrazide]
EC50 [1]: < 1 nM
EC50 selectivity (SDMA assay) [1, 4]: 311
CC50 [2]: < 100 nM

SMILES: CC(=O)N(C)N(Cc1cc2ccc(Cl)cn2n1)C(=O)c1ccc2nc(N)c3cnn(C)c3c2c1 [Example 403, N′-acetyl-4-amino-N-((6-chloropyrazolo[1,5-a]pyridin-2-yl)methyl)-N′,1-dimethyl-1H-pyrazolo[4,3-c]quinoline-8-carbohydrazide]
EC50 [1]: < 1 nM
EC50 selectivity (SDMA assay) [1, 4]: 476
CC50 [2]: < 100 nM

SMILES: CC(NN(Cc1ccc(C(F)(F)F)cn1)C(=O)c1ccc2nc(N)c3cnn(C)c3c2c1)C(F)(F)F (stereo not drawn) [Example 405, 4-amino-1-methyl-N-((5-(trifluoromethyl)pyridin-2-yl)methyl)-N′-(1,1,1-trifluoropropan-2-yl)-1H-pyrazolo[4,3-c]quinoline-8-carbohydrazide]
EC50 [1]: < 1 nM
EC50 selectivity (SDMA assay) [1, 4]: 154
CC50 [2]: < 100 nM

SMILES: CC(=O)N(C)N(Cc1ccc(C#N)cc1Cl)C(=O)c1ccc2nc(N)c3cnn(C)c3c2c1 [Example 406, N′-acetyl-4-amino-N-(2-chloro-4-cyanobenzyl)-N′,1-dimethyl-1H-pyrazolo[4,3-c]quinoline-8-carbohydrazide]
EC50 [1]: < 1 nM
EC50 selectivity (SDMA assay) [1, 4]: 212
CC50 [2]: < 100 nM

SMILES: CC(=O)N(C)N(Cc1c(F)cc(F)cc1F)C(=O)c1ccc2nc(N)c3cnn(C)c3c2c1 [Example 413, N′-acetyl-4-amino-N′,1-dimethyl-N-(2,4,6-trifluorobenzyl)-1H-pyrazolo[4,3-c]quinoline-8-carbohydrazide]
EC50 [1]: < 1 nM
EC50 selectivity (SDMA assay) [1, 4]: 497
CC50 [2]: < 100 nM

Further lines, with some results ahead:

EC50 [1]: < 1 nM
EC50 selectivity (SDMA assay) [1, 4]: 26
SMILES: CC(=O)N(C)N(Cc1c(F)cc(C(F)(F)F)cc1F)C(=O)c1ccc2nc(N)c3cnn(C)c3c2c1 [Example 415, N′-acetyl-4-amino-N-(2,6-difluoro-4-(trifluoromethyl)benzyl)-N′,1-dimethyl-1H-pyrazolo[4,3-c]quinoline-8-carbohydrazide]
CC50 [2]: < 100 nM

EC50 [1]: 1 to 5 nM
EC50 selectivity (SDMA assay) [1, 4]: 133
SMILES: CC(=O)N(C)N(Cc1ccc(C(F)(F)F)nc1C)C(=O)c1ccc2nc(N)c3cnn(C)c3c2c1 [Example 416, N′-acetyl-4-amino-N′,1-dimethyl-N-((2-methyl-6-(trifluoromethyl)pyridin-3-yl)methyl)-1H-pyrazolo[4,3-c]quinoline-8-carbohydrazide]
CC50 [2]: < 100 nM

EC50 [1]: 1 to 5 nM
EC50 selectivity (SDMA assay) [1, 4]: 114
SMILES: CC(=O)N(C)N(Cc1cc2c(C(F)(F)F)cccc2s1)C(=O)c1ccc2nc(N)c3cnn(C)c3c2c1 [Example 418, N′-acetyl-4-amino-N′,1-dimethyl-N-((4-(trifluoromethyl)benzo[b]thiophen-2-yl)methyl)-1H-pyrazolo[4,3-c]quinoline-8-carbohydrazide]
CC50 [2]: < 100 nM

EC50 [1]: 1 to 5 nM
EC50 selectivity (SDMA assay) [1, 4]: 118
SMILES: CC(=O)N(C)N(Cc1cc2cccc(C(F)(F)F)c2s1)C(=O)c1ccc2nc(N)c3cnn(C)c3c2c1 [Example 419, N′-acetyl-4-amino-N′,1-dimethyl-N-((7-(trifluoromethyl)benzo[b]thiophen-2-yl)methyl)-1H-pyrazolo[4,3-c]quinoline-8-carbohydrazide]
CC50 [2]: < 100 nM

EC50 [1]: < 1 nM
EC50 selectivity (SDMA assay) [1, 4]: 87
SMILES: Cn1ncc2c(N)nc3ccc(C(=O)N(Cc4nc5cc(C(F)(F)F)ccc5n4C)N4CCCC4=O)cc3c21 [Example 420, 4-amino-1-methyl-N-((1-methyl-5-(trifluoromethyl)-1H-benzo[d]imidazol-2-yl)methyl)-N-(2-oxopyrrolidin-1-yl)-1H-pyrazolo[4,3-c]quinoline-8-carboxamide]
CC50 [2]: < 100 nM

EC50 [1]: 1 to 5 nM
EC50 selectivity (SDMA assay) [1, 4]: 73
SMILES: CC(=O)N(C)N(Cc1cnc(-c2ccccc2)n1C)C(=O)c1cc2c(cc1F)nc(N)c1cnn(C)c12 [Example 421, N′-acetyl-4-amino-7-fluoro-N′,1-dimethyl-N-((1-methyl-2-phenyl-1H-imidazol-5-yl)methyl)-1H-pyrazolo[4,3-c]quinoline-8-carbohydrazide]
CC50 [2]: < 100 nM

EC50 [1]: 1 to 5 nM
EC50 selectivity (SDMA assay) [1, 4]: 149
SMILES: CC(=O)N(C)N(Cc1nc2cc(C(F)(F)F)ccc2n1C)C(=O)c1ccc2nc(N)c3cnn(C)c3c2c1 [Example 423, N′-acetyl-4-amino-N′,1-dimethyl-N-((1-methyl-5-(trifluoromethyl)-1H-benzo[d]imidazol-2-yl)methyl)-1H-pyrazolo[4,3-c]quinoline-8-carbohydrazide]
CC50 [2]: < 100 nM

EC50 [1]: 1 to 5 nM
EC50 selectivity (SDMA assay) [1, 4]: 297
SMILES: CC(=O)N(C)N(Cc1ccn(-c2ccc(F)cc2)n1)C(=O)c1ccc2nc(N)c3cnn(C)c3c2c1 [Example 432, N′-acetyl-4-amino-N-((1-(4-fluorophenyl)-1H-pyrazol-3-yl)methyl)-N′,1-dimethyl-1H-pyrazolo[4,3-c]quinoline-8-carbohydrazide]
CC50 [2]: < 100 nM
